Where “and” joins values, the source holds several entries; their conditions need not be identical. Identical values can stand only once. Toxic doses and inconclusive results are not listed. Rule for the calls: active = survival T/C of 150% or more; inactive = T/C below 125% in these data.
System: BDF1 mice, P388 leukemia ip, median survival T/C
Experiment: NCI In Vivo Anticancer Drug Screen. Data for tumor model P388 Leukemia (intraperitoneal) in B6D2F1 (BDF1) mice
Settings: endpoint: median survival time, higher = longer survival
Method in brief: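 T/C = treated-group survival ÷ vehicle-control survival; tumour transplanted into mice before dosing.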

[1] = dose: 100.0 mg/kg/injection, schedule: Q04DX003 (ip), vehicle: saline with Tween-80
[2] = dose: 200.0 mg/kg/injection, schedule: Q04DX003 (ip), vehicle: saline with Tween-80
[3] = dose: 400.0 mg/kg/injection, schedule: Q04DX003 (ip), vehicle: saline with Tween-80
[4] = dose: 50.0 mg/kg/injection, schedule: Q01DX009 (ip), vehicle: saline with Tween-80
[5] = dose: 100.0 mg/kg/injection, schedule: Q01DX009 (ip), vehicle: saline with Tween-80
[6] = dose: 200.0 mg/kg/injection, schedule: Q01DX009 (ip), vehicle: saline with Tween-80
[7] = dose: 50.0 mg/kg/injection, schedule: Q04DX003 (ip), vehicle: saline with Tween-80
[8] = dose: 100.0 mg/kg/injection, schedule: Q04DX003 (ip), vehicle: saline
[9] = dose: 200.0 mg/kg/injection, schedule: Q04DX003 (ip), vehicle: saline
[10] = dose: 400.0 mg/kg/injection, schedule: Q04DX003 (ip), vehicle: saline
[11] = dose: 100.0 mg/kg/injection, schedule: Q04DX003 (ip), vehicle: Klucel (hydroxypropylcellulose) (HPC)
[12] = dose: 6.25 mg/kg/injection, schedule: Q01DX009 (ip), vehicle: saline
[13] = dose: 12.5 mg/kg/injection, schedule: Q01DX009 (ip), vehicle: saline
[14] = dose: 25.0 mg/kg/injection, schedule: Q04DX003 (ip), vehicle: saline
[15] = dose: 50.0 mg/kg/injection, schedule: Q04DX003 (ip), vehicle: saline
[16] = dose: 25.0 mg/kg/injection, schedule: Q01DX009 (ip), vehicle: saline
[17] = dose: 6.25 mg/kg/injection, schedule: Q04DX003 (ip), vehicle: saline
[18] = dose: 12.5 mg/kg/injection, schedule: Q04DX003 (ip), vehicle: saline

Measured: T/C

O=[N+]([O-])c1ccc2nc3c(nc2c1)-c1cccc2cccc-3c12
inactive: [1] 91 % of control | [2] 100 % of control | [3] 91 % of control

CS(=O)c1ncc2cnccn12 (stereo not given)
inactive: dose: 25.0 mg/kg/injection, schedule: Q04DX003 (ip), vehicle: water 108 % of control | dose: 50.0 mg/kg/injection, schedule: Q04DX003 (ip), vehicle: water 100 % of control | dose: 100.0 mg/kg/injection, schedule: Q01DX009 (ip), vehicle: water 104 % of control | dose: 100.0 mg/kg/injection, schedule: Q04DX003 (ip), vehicle: water 108 % of control | dose: 200.0 mg/kg/injection, schedule: Q01DX009 (ip), vehicle: water 106 % of control

O=C1C=CC(=C(c2ccccc2)c2ccccc2)C=C1
inactive: dose: 12.5 mg/kg/injection, schedule: Q04DX003 (ip), vehicle: Klucel (hydroxypropylcellulose) (HPC) 95 % of control | dose: 25.0 mg/kg/injection, schedule: Q04DX003 (ip), vehicle: Klucel (hydroxypropylcellulose) (HPC) 100 % of control | dose: 50.0 mg/kg/injection, schedule: Q04DX003 (ip), vehicle: Klucel (hydroxypropylcellulose) (HPC) 91 % of control

N#CN=CN1CC=C(c2ccc(Cl)cc2)CC1
inactive: [4] 98 % of control | [5] 93 % of control | [6] 94 % of control

COC(=O)C12OCC34C(CC5=C(C)C(=O)C(O)=CC5(C)C3C(O)C1O)OC(=O)C(OC(=O)c1ccccc1)C24 (stereo not given)
inactive: dose: 0.04 mg/kg/injection, schedule: Q01DX009 (ip), vehicle: saline + alcohol 111 % of control | dose: 4.0 mg/kg/injection, schedule: Q01DX009 (ip), vehicle: saline + alcohol 100 % of control

Cc1cc2c(cc1C)C(O)C(N1CCN(C)CC1)CCC2 (stereo not given)
inactive: [7] 109 % of control | [1] 100 % of control | [2] 100 % of control

O=S(=O)(O)c1ccc(O)cc1
inactive: dose: 100.0 mg/kg/injection, schedule: Q01DX009 (ip), vehicle: saline 92 % of control | [8] 105 % of control | dose: 200.0 mg/kg/injection, schedule: Q01DX009 (ip), vehicle: saline 88 % of control | [9] 115 % of control | [10] 110 % of control

C=C(NC(C)=O)C(=O)O
inactive: dose: 20.0 mg/kg/injection, schedule: Q04DX003 (ip), vehicle: Klucel (hydroxypropylcellulose) (HPC) 108 % of control | dose: 25.0 mg/kg/injection, schedule: Q01DX009 (ip), vehicle: Klucel (hydroxypropylcellulose) (HPC) 104 % of control | dose: 40.0 mg/kg/injection, schedule: Q04DX003 (ip), vehicle: Klucel (hydroxypropylcellulose) (HPC) 108 % of control | dose: 50.0 mg/kg/injection, schedule: Q01DX009 (ip), vehicle: Klucel (hydroxypropylcellulose) (HPC) 104 % of control | dose: 80.0 mg/kg/injection, schedule: Q04DX003 (ip), vehicle: Klucel (hydroxypropylcellulose) (HPC) 86 % of control | dose: 100.0 mg/kg/injection, schedule: Q01DX009 (ip), vehicle: Klucel (hydroxypropylcellulose) (HPC) 90 % of control | [11] 95 % of control

CCSC1(SCC)C(=O)OC2=C(CCCCC2)C1N(C)C (stereo not given)
inactive: [4] 96 % of control | [5] 95 % of control | [6] 103 % of control

O=c1[nH]nc(-c2ccccc2)nc1/C(=N\Nc1ccc([N+](=O)[O-])cc1)c1ccccc1
inactive: [4] 89 % of control | [5] 89 % of control | [6] 98 % of control

CN1CC(C(=O)N2CCCCC2)C=C2c3cccc4[nH]cc(c34)CC21 (stereo not given)
inactive: dose: 3.12 mg/kg/injection, schedule: Q01DX009 (ip), vehicle: saline 95 % of control | [12] 113 % of control | [13] 104 % of control | [14] 116 % of control | [15] 87 % of control

COc1ccc(C(Br)C(Br)C(=O)c2ccc3c(c2)OCO3)cc1OC (stereo not given)
inactive: [14] 104 % of control | [15] 90 % of control | [8] 113 % of control | [9] 97 % of control | [10] 90 % of control | dose: 600.0 mg/kg/injection, schedule: Q04DX003 (ip), vehicle: saline 119 % of control

[O-][n+]1ccc(Cl)c2ccsc21
inactive: [7] 95 % of control | [1] 95 % of control | [2] 90 % of control and 104 % of control | [3] 86 % of control

CCN(CC)CCn1c(=O)c2ccccc2c2ccccc21
inactive: [13] 120 % of control | [16] 105 % of control | dose: 50.0 mg/kg/injection, schedule: Q01DX009 (ip), vehicle: saline 120 % of control

CC1=C/C(=N\N=C2/C=C(C)CC(C)(C)C2)CC(C)(C)C1
inactive: [11] 104 % of control | dose: 200.0 mg/kg/injection, schedule: Q04DX003 (ip), vehicle: Klucel (hydroxypropylcellulose) (HPC) 109 % of control | dose: 400.0 mg/kg/injection, schedule: Q04DX003 (ip), vehicle: Klucel (hydroxypropylcellulose) (HPC) 100 % of control

CC(C)(C)P(c1ccccc1)c1ccccc1
inactive: [7] 111 % of control | [1] 107 % of control | [2] 96 % of control

CC(C)(C)OC(=O)NC(Cc1cncn1Cc1ccccc1)C(=O)NC(Cc1c[nH]c2ccccc12)C(=O)OCc1ccccc1 (stereo not given)
inactive: [15] 105 % of control | [8] 106 % of control | [9] 102 % of control | [10] 100 % of control

O=[N+]([O-])c1ccccn1
inactive: [17] 100 % of control | [18] 100 % of control | [14] 104 % of control

CCOC1CC(C)C(C=O)C(C#N)(C#N)C1(C#N)C#N (stereo not given)
inactive: dose: 12.5 mg/kg/injection, schedule: Q01DX001 (ip), vehicle: saline with Tween-80 100 % of control | dose: 25.0 mg/kg/injection, schedule: Q01DX001 (ip), vehicle: saline with Tween-80 109 % of control | dose: 50.0 mg/kg/injection, schedule: Q01DX001 (ip), vehicle: saline with Tween-80 106 % of control

COc1cccc(OC)c1-c1oc2ccccc2c(=O)c1O
inactive: [5] 107 % of control | [1] 104 % of control | [6] 100 % of control | [2] 109 % of control | dose: 400.0 mg/kg/injection, schedule: Q01DX009 (ip), vehicle: saline with Tween-80 100 % of control | [3] 100 % of control

O=CN1CCCC1C(=O)O (stereo not given)
inactive: dose: 6.25 mg/kg/injection, schedule: Q01DX009 (ip), vehicle: water 103 % of control | dose: 12.5 mg/kg/injection, schedule: Q01DX009 (ip), vehicle: water 99 % of control | dose: 25.0 mg/kg/injection, schedule: Q01DX009 (ip), vehicle: water 96 % of control | dose: 50.0 mg/kg/injection, schedule: Q01DX009 (ip), vehicle: water 94 % of control

CCOC(=O)Nc1cc(NC(C)CCCN(CC)CC)c2ncc(-c3ccc(Cl)c(Cl)c3)nc2n1 (stereo not given) (tested in a mixture with another compound)
inactive: [12] 109 % of control | [17] 95 % of control | [13] 100 % of control | [18] 95 % of control | [16] 104 % of control | [14] 104 % of control

O=C(NC12CC3CC(CC(C3)C1)C2)C(F)(F)F
inactive: [4] 98 % of control | [5] 105 % of control | [6] 102 % of control

From PubChem BioAssay AID328 (DTP/NCI, 2004)
